ChEMBL document CHEMBL3046202, “Synthesis, spectral studies, antimicrobial and insect antifeedant potent keto oxiranes” (2011)
Activity calls are given as the source filed them. No cut-off for these calls is given here.

Assays:
[1] = system: Staphylococcus aureus; experiment: Antibacterial activity against Staphylococcus aureus assessed as diameter of growth zone inhibition at 250 ug/ml after 24-45 hrs by disc diffusion technique; format: functional; conditions: read-out: DIZ
[2] = system: Penicillium; experiment: Antifungal activity against Penicillium assessed as growth inhibition at 50 ug/ml after 72 hrs by dilution method; format: functional, organism-based
[3] = system: Pseudomonas; experiment: Antibacterial activity against Pseudomonas assessed as diameter of growth zone inhibition at 250 ug/ml after 24-45 hrs by disc diffusion technique; format: functional; conditions: read-out: DIZ
[4] = system: Escherichia coli; experiment: Antibacterial activity against Escherichia coli assessed as diameter of growth zone inhibition at 250 ug/ml after 24-45 hrs by disc diffusion technique; format: functional; conditions: read-out: DIZ
[5] = system: Enterococcus faecalis; experiment: Antibacterial activity against Enterococcus faecalis assessed as growth inhibition at 250 ug/ml after 24-45 hrs by disc diffusion technique; format: functional, organism-based
[6] = system: Aspergillus niger; experiment: Antifungal activity against Aspergillus niger assessed as growth inhibition at 50 ug/ml after 72 hrs by dilution method; format: functional, organism-based
[7] = system: Proteus vulgaris; experiment: Antibacterial activity against Proteus vulgaris assessed as diameter of growth zone inhibition at 250 ug/ml after 24-45 hrs by disc diffusion technique; format: functional; conditions: read-out: DIZ
[8] = system: Klebsiella; experiment: Antibacterial activity against Klebsiella assessed as diameter of growth zone inhibition at 250 ug/ml after 24-45 hrs by disc diffusion technique; format: functional; conditions: read-out: DIZ
[9] = system: Enterococcus faecalis; experiment: Antibacterial activity against Enterococcus faecalis assessed as diameter of growth zone inhibition at 250 ug/ml after 24-45 hrs by disc diffusion technique; format: functional; conditions: read-out: DIZ
[10] = system: Achaea janata; experiment: Antifeedant activity against fourth-instar larval stage of Achaea janata L. in castor leaves assessed as decrease in leaf disc consumption at 50 to 200 ppm treated for 5 mins before larval infestation by leaf-disc bioassay method; format: functional, organism-based
[11] = system: Candida albicans; experiment: Antifungal activity against Candida albicans assessed as diameter of growth zone inhibition at 250 ug/ml after 72 hrs by disc diffusion technique; format: functional; conditions: read-out: DIZ
[12] = system: Achaea janata; experiment: Antifeedant activity against fourth-instar larval stage of Achaea janata L. in castor leaves assessed as decrease in leaf disc consumption at 200 ppm treated for 5 mins before larval infestation by leaf-disc bioassay method; format: functional, organism-based

Structure (SMILES)	zone of inhibition at 250 µg/mL [1] [mm]	growth inhibition (GI) [2]	zone of inhibition at 250 µg/mL [3] [mm]	zone of inhibition at 250 µg/mL [4] [mm]	growth inhibition (GI) [5]	growth inhibition (GI) [6]	zone of inhibition at 250 µg/mL [7] [mm]	zone of inhibition at 250 µg/mL [8] [mm]	zone of inhibition at 250 µg/mL [9] [mm]	Activity [10]	zone of inhibition at 250 µg/mL [11] [mm]	Activity [12]
O=C(c1ccc(-c2ccccc2)cc1)[C@H]1O[C@@H]1c1ccc([N+](=O)[O-])cc1	13	inactive	13	13	inactive	inactive	13	13	–	–	–	–
Cc1ccc([C@H]2O[C@@H]2C(=O)c2ccc(-c3ccccc3)cc2)cc1	8	–	13	–	–	inactive	8	8	8	–	–	–
O=C(c1ccc(-c2ccccc2)cc1)[C@H]1O[C@@H]1c1cccc([N+](=O)[O-])c1	13	–	13	13	inactive	–	13	13	–	–	–	–
Nc1ccc([C@H]2O[C@@H]2C(=O)c2ccc(-c3ccccc3)cc2)cc1	20	–	13	20	–	–	13	20	20	–	–	–
O=C(c1ccc(-c2ccccc2)cc1)[C@H]1O[C@@H]1c1ccc(Cl)cc1	13	inactive	13	13	inactive	inactive	13	13	–	Active	8	–
O=C(c1ccc(-c2ccccc2)cc1)[C@H]1O[C@@H]1c1cccc(Br)c1	13	Active	13	13	inactive	Active	13	13	–	–	20	Active
O=C(c1ccc(-c2ccccc2)cc1)[C@H]1O[C@@H]1c1ccccc1[N+](=O)[O-]	13	inactive	13	13	inactive	inactive	13	13	–	–	–	–
COc1ccc([C@H]2O[C@@H]2C(=O)c2ccc(-c3ccccc3)cc2)cc1	13	Active	13	13	–	–	13	13	20	–	20	–
O=C(c1ccc(-c2ccccc2)cc1)[C@H]1O[C@@H]1c1cccc(Cl)c1	13	–	13	13	inactive	–	13	13	–	–	–	Active
O=C(c1ccc(-c2ccccc2)cc1)[C@H]1O[C@@H]1c1ccc(O)cc1	13	–	13	13	inactive	–	13	13	–	–	20	–
Nc1cccc([C@H]2O[C@@H]2C(=O)c2ccc(-c3ccccc3)cc2)c1	20	–	13	20	–	–	13	20	20	–	–	–
CN(C)c1ccc([C@H]2O[C@@H]2C(=O)c2ccc(-c3ccccc3)cc2)cc1	20	Active	20	20	inactive	Active	13	13	–	–	8	–
O=C(c1ccc(-c2ccccc2)cc1)[C@H]1O[C@@H]1c1ccccc1	8	inactive	8	8	inactive	inactive	8	8	–	–	–	–
